Results from US20050123560A1, “High purity and water dispersible extract and formulations of larrea tridentata leaf resin, and methods of making and using the same” (priority 2003, published 2005).

Legend:
[1] = animal studies, ingestion; cited from earlier work
[2] = Reduction of oxidized NDGA in methanolic solution by reducing agents, followed by chromatography; details: reducing agent at 100 mg/ml in methanolic solution of oxidized NDGA

CC(Cc1ccc(O)c(O)c1)C(C)Cc1ccc(O)c(O)c1 (stereo not drawn) [NDGA, nordihydroguaiaretic acid]
kidney toxicity [1]: evidence of kidney toxicity

O=C1O[C@H]([C@@H](O)CO)C(O)=C1O [ascorbic acid]
time to reduce oxidized NDGA [2]: approximately 1 minute

O=S([O-])S(=O)[O-].[Na+].[Na+] [sodium hydrosulfite]
NDGA quinone remaining by chromatography after reduction [2]: still detectable
